Measurements: ChEMBL document CHEMBL4507300 (2021)

Columns and labels:
[1] = target: 5-hydroxytryptamine receptor 1B (Homo sapiens) (UniProt P28222); conditions: Compound concentration 10.0 uM
[2] = target: 5-hydroxytryptamine receptor 5A (Homo sapiens) (UniProt P47898); conditions: Compound concentration 10.0 uM
[3] = target: T1, GABA-A receptor; anion channel (Rattus norvegicus) (UniProt O09028+P15431+P18506+P18508+P19969+P20236+P23574+P23576+P28471+P28473+P30191+P62813+P63079+P63138+Q91ZM7+Q9ES14); conditions: Compound concentration 10.0 uM
[4] = target: T1, GABA-A receptor; anion channel (Rattus norvegicus); conditions: Compound concentration 10.0 uM; remark: listed apart in the source
[5] = target: T2, Sigma non-opioid intracellular receptor 1 (Homo sapiens, UniProt Q99720); assay: GPCRScan assay: inhibition of Sigma 1; parameters: radioligand conc. used [nm] 4.0 – 5.0, parental cells HEKT
T2 sequence (Q99720 whole entry): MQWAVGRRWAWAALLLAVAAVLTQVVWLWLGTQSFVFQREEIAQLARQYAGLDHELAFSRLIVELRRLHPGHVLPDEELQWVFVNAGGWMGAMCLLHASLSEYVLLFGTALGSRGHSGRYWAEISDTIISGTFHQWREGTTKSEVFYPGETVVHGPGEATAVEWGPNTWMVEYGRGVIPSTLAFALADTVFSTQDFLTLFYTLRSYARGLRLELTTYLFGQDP

[6] = target: D(1B) dopamine receptor (Homo sapiens) (UniProt P21918); conditions: Compound concentration 10.0 uM
Chain of D(1B) dopamine receptor (Homo sapiens) (P21918 whole entry): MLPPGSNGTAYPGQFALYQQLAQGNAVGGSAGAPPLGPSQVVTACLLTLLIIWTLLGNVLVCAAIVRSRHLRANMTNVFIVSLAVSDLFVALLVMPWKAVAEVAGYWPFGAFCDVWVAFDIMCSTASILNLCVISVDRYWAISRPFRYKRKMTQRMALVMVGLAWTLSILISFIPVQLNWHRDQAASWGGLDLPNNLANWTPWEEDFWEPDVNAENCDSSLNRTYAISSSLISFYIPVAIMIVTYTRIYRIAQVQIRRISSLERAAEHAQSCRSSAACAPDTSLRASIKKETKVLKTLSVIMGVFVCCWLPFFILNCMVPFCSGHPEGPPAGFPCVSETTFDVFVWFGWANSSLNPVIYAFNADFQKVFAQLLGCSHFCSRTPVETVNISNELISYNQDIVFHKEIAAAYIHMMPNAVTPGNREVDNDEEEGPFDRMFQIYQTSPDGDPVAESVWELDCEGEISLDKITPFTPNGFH

[7] = target: Sodium-dependent noradrenaline transporter (Homo sapiens) (UniProt P23975); conditions: Compound concentration 10.0 uM
[8] = target: T3, 5-hydroxytryptamine receptor 2B (Homo sapiens, UniProt P41595); assay: GPCRScan assay: inhibition of 5-HT2B; parameters: radioligand conc. used [nm] 1.0 – 2.0, parental cells stable HEK
T3 sequence (P41595 whole entry): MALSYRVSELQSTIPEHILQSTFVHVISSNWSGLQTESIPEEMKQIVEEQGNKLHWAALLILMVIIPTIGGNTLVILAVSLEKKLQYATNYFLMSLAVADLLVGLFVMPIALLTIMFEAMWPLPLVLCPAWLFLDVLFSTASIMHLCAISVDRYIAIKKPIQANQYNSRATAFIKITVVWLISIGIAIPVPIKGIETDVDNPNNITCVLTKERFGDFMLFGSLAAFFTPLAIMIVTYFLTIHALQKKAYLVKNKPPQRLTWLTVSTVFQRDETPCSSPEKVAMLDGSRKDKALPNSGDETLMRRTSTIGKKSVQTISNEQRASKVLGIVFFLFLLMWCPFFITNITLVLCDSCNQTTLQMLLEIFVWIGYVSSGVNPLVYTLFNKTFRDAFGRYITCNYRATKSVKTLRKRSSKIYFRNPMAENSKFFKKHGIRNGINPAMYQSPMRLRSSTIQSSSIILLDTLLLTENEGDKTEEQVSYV

[9] = target: Beta-3 adrenergic receptor (Homo sapiens) (UniProt P13945); conditions: Compound concentration 10.0 uM
Chain of Beta-3 adrenergic receptor (Homo sapiens) (P13945 whole entry, looked up): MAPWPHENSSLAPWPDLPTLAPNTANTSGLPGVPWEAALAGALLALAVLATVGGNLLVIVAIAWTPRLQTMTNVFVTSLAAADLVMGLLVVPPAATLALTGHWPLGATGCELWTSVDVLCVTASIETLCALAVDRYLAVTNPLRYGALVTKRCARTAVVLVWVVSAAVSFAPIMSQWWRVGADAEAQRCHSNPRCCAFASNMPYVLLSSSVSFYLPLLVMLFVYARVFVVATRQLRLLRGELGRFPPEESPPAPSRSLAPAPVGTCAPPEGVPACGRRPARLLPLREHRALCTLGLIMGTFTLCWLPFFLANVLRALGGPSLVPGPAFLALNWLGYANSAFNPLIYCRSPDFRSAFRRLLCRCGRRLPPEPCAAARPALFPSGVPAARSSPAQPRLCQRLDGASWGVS

[10] = target: D(4) dopamine receptor (Homo sapiens) (UniProt P21917); conditions: Compound concentration 10.0 uM
Chain of D(4) dopamine receptor (Homo sapiens) (P21917 whole entry): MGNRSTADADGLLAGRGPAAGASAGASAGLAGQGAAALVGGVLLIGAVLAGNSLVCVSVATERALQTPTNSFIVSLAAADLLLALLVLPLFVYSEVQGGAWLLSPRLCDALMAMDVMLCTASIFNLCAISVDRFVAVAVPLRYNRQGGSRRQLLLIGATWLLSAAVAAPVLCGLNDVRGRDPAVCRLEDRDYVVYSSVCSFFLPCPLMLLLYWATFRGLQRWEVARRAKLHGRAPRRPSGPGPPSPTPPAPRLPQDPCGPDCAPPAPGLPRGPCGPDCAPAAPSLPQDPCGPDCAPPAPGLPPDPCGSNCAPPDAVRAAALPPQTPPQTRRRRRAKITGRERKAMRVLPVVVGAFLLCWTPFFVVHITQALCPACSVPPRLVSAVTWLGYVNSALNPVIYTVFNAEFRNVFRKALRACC

[11] = target: Alpha-2C adrenergic receptor (Homo sapiens) (UniProt P18825); conditions: Compound concentration 10.0 uM
[12] = target: Alpha-2A adrenergic receptor (Homo sapiens) (UniProt P08913); conditions: Compound concentration 10.0 uM
Chain of Alpha-2A adrenergic receptor (Homo sapiens) (P08913 whole entry): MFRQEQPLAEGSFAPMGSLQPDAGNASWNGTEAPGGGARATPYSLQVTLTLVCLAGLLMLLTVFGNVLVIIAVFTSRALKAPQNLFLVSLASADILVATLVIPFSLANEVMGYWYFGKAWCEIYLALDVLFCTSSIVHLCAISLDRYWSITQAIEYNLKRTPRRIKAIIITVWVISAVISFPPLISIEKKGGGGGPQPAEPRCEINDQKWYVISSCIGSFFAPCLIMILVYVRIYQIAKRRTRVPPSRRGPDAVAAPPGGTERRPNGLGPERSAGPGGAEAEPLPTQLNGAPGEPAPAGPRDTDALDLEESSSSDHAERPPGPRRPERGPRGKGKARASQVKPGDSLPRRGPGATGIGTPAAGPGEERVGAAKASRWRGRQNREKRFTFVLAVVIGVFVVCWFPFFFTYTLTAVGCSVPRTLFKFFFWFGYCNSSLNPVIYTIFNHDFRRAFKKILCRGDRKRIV

[13] = target: Muscarinic acetylcholine receptor M1 (Homo sapiens) (UniProt P11229); conditions: Compound concentration 10.0 uM
[14] = target: Histamine H4 receptor (Homo sapiens) (UniProt Q9H3N8); conditions: Compound concentration 10.0 uM
[15] = target: Beta-1 adrenergic receptor (Homo sapiens) (UniProt P08588); conditions: Compound concentration 10.0 uM
[16] = target: Muscarinic acetylcholine receptor M5 (Homo sapiens) (UniProt P08912); conditions: Compound concentration 10.0 uM
[17] = target: T4, Sodium-dependent serotonin transporter (Homo sapiens, UniProt P31645); conditions: Compound concentration 10.0 uM
[18] = target: 5-hydroxytryptamine receptor 2C (Homo sapiens) (UniProt P28335); conditions: Compound concentration 10.0 uM
Histamine H1 receptor [19] = target: T5, Histamine H1 receptor (Homo sapiens, UniProt P35367); assay: GPCRScan assay: inhibition of H1; parameters: radioligand conc. used [nm] 0.6 – 2.0, parental cells stable HEK
T5 sequence (P35367 whole entry): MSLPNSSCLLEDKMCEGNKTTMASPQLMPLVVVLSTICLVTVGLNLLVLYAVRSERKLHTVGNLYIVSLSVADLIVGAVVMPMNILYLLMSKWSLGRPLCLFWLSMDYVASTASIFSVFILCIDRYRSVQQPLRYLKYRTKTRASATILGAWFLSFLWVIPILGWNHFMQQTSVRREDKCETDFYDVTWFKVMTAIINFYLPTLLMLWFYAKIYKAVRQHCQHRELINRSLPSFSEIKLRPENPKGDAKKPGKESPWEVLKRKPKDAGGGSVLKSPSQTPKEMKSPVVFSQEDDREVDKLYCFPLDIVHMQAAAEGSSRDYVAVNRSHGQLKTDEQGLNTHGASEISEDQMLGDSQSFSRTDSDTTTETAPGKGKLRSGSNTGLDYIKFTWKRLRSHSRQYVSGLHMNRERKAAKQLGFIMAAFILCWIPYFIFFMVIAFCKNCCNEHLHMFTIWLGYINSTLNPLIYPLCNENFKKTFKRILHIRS

[20] = target: 5-hydroxytryptamine receptor 1A (Homo sapiens) (UniProt P08908); conditions: Compound concentration 10.0 uM
[21] = target: 5-hydroxytryptamine receptor 1D (Homo sapiens) (UniProt P28221); conditions: Compound concentration 10.0 uM
[22] = target: Histamine H3 receptor (Homo sapiens) (UniProt Q9Y5N1); conditions: Compound concentration 10.0 uM
Chain of Histamine H3 receptor (Homo sapiens) (Q9Y5N1 whole entry): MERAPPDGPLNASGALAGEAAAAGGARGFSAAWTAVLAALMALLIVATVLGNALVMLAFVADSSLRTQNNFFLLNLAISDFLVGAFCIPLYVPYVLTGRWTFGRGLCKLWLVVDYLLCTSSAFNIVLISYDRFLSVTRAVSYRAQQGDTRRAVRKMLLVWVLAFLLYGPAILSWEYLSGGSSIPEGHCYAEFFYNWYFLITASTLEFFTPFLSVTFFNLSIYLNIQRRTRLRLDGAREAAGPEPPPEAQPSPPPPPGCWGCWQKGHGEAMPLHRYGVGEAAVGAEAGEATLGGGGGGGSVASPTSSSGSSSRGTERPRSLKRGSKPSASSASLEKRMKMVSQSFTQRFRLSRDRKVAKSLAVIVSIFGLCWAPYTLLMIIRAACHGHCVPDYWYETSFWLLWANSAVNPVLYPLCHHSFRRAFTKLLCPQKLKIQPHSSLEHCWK

[23] = target: 5-hydroxytryptamine receptor 3A (Homo sapiens) (UniProt P46098); conditions: Compound concentration 10.0 uM
Chain of 5-hydroxytryptamine receptor 3A (Homo sapiens) (P46098 whole entry): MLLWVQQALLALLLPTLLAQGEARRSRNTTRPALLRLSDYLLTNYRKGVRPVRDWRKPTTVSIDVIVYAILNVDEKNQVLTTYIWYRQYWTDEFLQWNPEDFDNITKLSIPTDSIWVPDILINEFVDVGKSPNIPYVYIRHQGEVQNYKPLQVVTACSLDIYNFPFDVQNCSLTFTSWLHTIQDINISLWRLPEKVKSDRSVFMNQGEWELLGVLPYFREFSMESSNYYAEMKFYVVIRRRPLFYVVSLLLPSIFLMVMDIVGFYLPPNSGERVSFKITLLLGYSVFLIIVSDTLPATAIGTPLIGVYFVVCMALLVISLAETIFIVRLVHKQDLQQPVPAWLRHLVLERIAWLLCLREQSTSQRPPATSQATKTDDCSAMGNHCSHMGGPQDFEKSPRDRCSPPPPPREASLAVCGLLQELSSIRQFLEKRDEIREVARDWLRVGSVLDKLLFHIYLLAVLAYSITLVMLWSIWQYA

Rattus norvegicus = organism: Rattus norvegicus; conditions: Compound concentration 10.0 uM
Histamine H1 receptor [24] = target: T5, Histamine H1 receptor; conditions: Compound concentration 10.0 uM
[25] = target: Alpha-1D adrenergic receptor (Homo sapiens) (UniProt P25100); conditions: Compound concentration 10.0 uM
[26] = target: D(2) dopamine receptor (Homo sapiens) (UniProt P14416); conditions: Compound concentration 10.0 uM
[27] = target: T3, 5-hydroxytryptamine receptor 2B; conditions: Compound concentration 10.0 uM
[28] = target: Mu-type opioid receptor (Homo sapiens) (UniProt P35372); conditions: Compound concentration 10.0 uM
[29] = target: Delta-type opioid receptor (Homo sapiens) (UniProt P41143); conditions: Compound concentration 10.0 uM
[30] = target: D(3) dopamine receptor (Homo sapiens) (UniProt P35462); conditions: Compound concentration 10.0 uM
[31] = target: T2, Sigma non-opioid intracellular receptor 1; conditions: Compound concentration 10.0 uM
[32] = target: T4, Sodium-dependent serotonin transporter; assay: GPCRScan assay: inhibition of SERT; parameters: radioligand conc. used [nm] 1.5 – 2.0, parental cells stable HEK
[33] = target: Muscarinic acetylcholine receptor M2 (Homo sapiens) (UniProt P08172); conditions: Compound concentration 10.0 uM
Chain of Muscarinic acetylcholine receptor M2 (Homo sapiens) (P08172 whole entry): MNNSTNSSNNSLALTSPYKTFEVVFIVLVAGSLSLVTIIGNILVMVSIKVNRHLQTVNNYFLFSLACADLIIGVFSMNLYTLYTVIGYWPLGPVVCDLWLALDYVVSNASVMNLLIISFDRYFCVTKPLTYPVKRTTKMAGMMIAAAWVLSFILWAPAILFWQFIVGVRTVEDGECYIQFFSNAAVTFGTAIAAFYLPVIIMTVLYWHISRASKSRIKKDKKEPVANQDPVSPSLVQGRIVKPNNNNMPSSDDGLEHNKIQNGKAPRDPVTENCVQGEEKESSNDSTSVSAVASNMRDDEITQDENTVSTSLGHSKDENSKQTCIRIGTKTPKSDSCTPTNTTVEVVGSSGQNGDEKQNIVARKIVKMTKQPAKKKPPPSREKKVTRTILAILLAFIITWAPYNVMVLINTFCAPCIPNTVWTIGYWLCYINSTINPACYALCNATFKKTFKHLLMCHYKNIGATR

[34] = target: Sodium-dependent dopamine transporter (Homo sapiens) (UniProt Q01959); conditions: Compound concentration 10.0 uM
[35] = target: Alpha-1B adrenergic receptor (Homo sapiens) (UniProt P35368); conditions: Compound concentration 10.0 uM
[36] = target: Histamine H2 receptor (Homo sapiens) (UniProt P25021); conditions: Compound concentration 10.0 uM
[37] = target: 5-hydroxytryptamine receptor 1E (Homo sapiens) (UniProt P28566); conditions: Compound concentration 10.0 uM
[38] = target: Alpha-2B adrenergic receptor (Homo sapiens) (UniProt P18089); conditions: Compound concentration 10.0 uM
[39] = target: Alpha-1A adrenergic receptor (Homo sapiens) (UniProt P35348); conditions: Compound concentration 10.0 uM
[40] = target: 5-hydroxytryptamine receptor 2A (Homo sapiens) (UniProt P28223); conditions: Compound concentration 10.0 uM
[41] = target: Beta-2 adrenergic receptor (Homo sapiens) (UniProt P07550); conditions: Compound concentration 10.0 uM
Chain of Beta-2 adrenergic receptor (Homo sapiens) (P07550 whole entry, looked up): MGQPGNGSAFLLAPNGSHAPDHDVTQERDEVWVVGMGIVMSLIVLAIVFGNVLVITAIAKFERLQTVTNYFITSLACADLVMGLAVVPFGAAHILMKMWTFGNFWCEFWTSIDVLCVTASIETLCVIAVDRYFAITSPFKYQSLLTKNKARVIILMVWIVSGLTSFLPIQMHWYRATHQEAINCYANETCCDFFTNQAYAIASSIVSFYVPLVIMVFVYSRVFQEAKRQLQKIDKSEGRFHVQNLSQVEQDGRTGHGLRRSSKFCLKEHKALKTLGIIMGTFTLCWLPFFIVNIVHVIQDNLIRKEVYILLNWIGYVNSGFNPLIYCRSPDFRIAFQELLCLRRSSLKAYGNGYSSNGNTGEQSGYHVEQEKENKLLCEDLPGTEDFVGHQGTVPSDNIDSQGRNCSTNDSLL

[42] = target: 5-hydroxytryptamine receptor 7 (Homo sapiens) (UniProt P34969); conditions: Compound concentration 10.0 uM
[43] = target: Kappa-type opioid receptor (Homo sapiens) (UniProt P41145); conditions: Compound concentration 10.0 uM
[44] = target: 5-hydroxytryptamine receptor 6 (Homo sapiens) (UniProt P50406); conditions: Compound concentration 10.0 uM

- inhibition [1]: -2.26%
- inhibition [2]: 2.98%
- inhibition [3]: 30.5%
- inhibition [4]: 32.4%
- Ki [5]: 263 nM
- inhibition [6]: 2.81%
- inhibition [7]: 19.6%
- Ki [8]: 1600 nM
- inhibition [9]: -4.01%
- inhibition [10]: 14.4%
- inhibition [11]: 16.3%
- inhibition [12]: 27.3%
- inhibition [13]: -8.97%
- inhibition [14]: 21%
- inhibition [15]: 30.9%
- inhibition [16]: 2.67%
- inhibition [17]: 84%
- inhibition [18]: 13.5%
- Ki (Histamine H1 receptor [19]): 19 nM
- inhibition [20]: 15.8%
- inhibition [21]: -0.959%
- inhibition [22]: 6.01%
- inhibition [23]: 20.4%
- inhibition (Rattus norvegicus): 18.5%
- inhibition (Histamine H1 receptor [24]): 73.4%
- inhibition [25]: 12.7%
- inhibition [26]: 12.5%
- inhibition [27]: 51%
- inhibition [28]: 2.84%
- inhibition [29]: -5.54%
- inhibition [30]: 20.1%
- inhibition [31]: 80.7%
- Ki [32]: 831 nM
- inhibition [33]: 26.6%
- inhibition [34]: -7.85%
- inhibition [35]: 12.9%
- inhibition [36]: 30.7%
- inhibition [37]: -0.688%
- inhibition [38]: 17.4%
- inhibition [39]: 12.5%
- inhibition [40]: 14.9%
- inhibition [41]: -6.8%
- inhibition [42]: -5.94%
- inhibition [43]: 14.2%
- inhibition [44]: 3.76%
SMILES: COc1cccc(CNC(=O)c2nc3scc(CN(C)Cc4ccccc4)c3c(=O)[nH]2)c1 [T-26f]
